Laboratory results from patent US10479795B2 (Incyte Corporation, priority 2016, dated 2019).
Where a name gives a salt, the structure may show the parent alone. Read-outs that look alike come from different tables or passages of the source.

Key:
[1] = system: Phosphorylated Ribosomal Protein S6 (RPS6); assay: THP-1 RPS6 ELISA Assay; assay type: cell-based, Human; details: THP-1 cells, read-out: PI3Kγ_THP1_RPS6_ELISA IC50
In short: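 Serum-starved THP-1 cells were preincubated with a concentration range of compound for 2 h at 37 °C, then stimulated with 10 nM MCP-1 for 15 min. Phospho-RPS6 in lysates was quantified by ELISA at 450 nm. IC50 came from percent inhibition versus log inhibitor concentration.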

[2] = target: PI3Kγ (p110γ) Recombinant Human Protein (Homo sapiens (Human), UniProt P48736); assay: PI3K-γ Scintillation Proximity Assay; assay type: biochemical; details: read-out: PI3Kγ IC50
In short: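 Recombinant human p110γ assayed at room temperature in 20 mM MOPS pH 6.7, 10 mM MgCl2, 5 mM DTT, 0.03% CHAPS, 2% DMSO, with 20 μM PIP2 and 2 μM ATP plus [γ-33P]ATP. Product captured on WGA SPA beads overnight and counted; IC50 fitted from % of solvent-control activity versus log inhibitor concentration.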

[3] = target: PI3Kδ (p110δ/p85α) Recombinant Human Protein (Homo sapiens (Human), UniProt O00329); assay: PI3Kδ Scintillation Proximity Assay; assay type: biochemical
In short: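 Recombinant human p110δ/p85α (3.4 nM) phosphorylates 20 μM di-octanoyl PIP2 using 2 μM ATP spiked with [γ-33P]ATP, 120 min, room temperature, pH 6.7, 2% DMSO. Product measured by scintillation proximity; IC50 from dose-response fit.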

Chain of PI3Kδ (p110δ/p85α) Recombinant Human Protein (O00329 whole entry): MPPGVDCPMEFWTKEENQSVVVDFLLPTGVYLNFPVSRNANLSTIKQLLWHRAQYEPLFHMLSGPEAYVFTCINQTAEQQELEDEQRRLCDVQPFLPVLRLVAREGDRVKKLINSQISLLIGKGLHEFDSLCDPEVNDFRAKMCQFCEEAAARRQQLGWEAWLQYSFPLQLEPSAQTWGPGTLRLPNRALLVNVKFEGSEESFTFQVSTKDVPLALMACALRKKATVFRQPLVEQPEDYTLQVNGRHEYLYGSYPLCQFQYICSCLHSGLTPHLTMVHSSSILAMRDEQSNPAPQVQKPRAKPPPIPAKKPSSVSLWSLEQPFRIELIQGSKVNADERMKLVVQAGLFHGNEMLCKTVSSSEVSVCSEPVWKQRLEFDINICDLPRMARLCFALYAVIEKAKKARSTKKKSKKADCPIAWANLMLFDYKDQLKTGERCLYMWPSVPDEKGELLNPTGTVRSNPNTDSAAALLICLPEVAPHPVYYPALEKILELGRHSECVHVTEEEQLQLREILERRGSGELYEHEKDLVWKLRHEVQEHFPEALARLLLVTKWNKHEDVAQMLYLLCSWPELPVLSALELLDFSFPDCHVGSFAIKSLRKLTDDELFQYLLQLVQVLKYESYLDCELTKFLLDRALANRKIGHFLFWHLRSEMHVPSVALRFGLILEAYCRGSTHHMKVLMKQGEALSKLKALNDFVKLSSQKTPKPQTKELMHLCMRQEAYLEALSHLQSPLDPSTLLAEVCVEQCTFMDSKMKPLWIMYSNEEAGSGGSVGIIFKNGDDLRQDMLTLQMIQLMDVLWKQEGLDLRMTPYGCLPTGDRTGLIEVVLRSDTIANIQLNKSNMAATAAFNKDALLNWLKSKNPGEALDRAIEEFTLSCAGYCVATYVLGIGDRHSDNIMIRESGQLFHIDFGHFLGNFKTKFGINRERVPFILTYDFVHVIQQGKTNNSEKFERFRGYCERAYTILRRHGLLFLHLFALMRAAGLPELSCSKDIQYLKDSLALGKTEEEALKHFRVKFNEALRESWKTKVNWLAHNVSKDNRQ
Chain of PI3Kδ (p110δ/p85α) Recombinant Human Protein (P27986 whole entry partner): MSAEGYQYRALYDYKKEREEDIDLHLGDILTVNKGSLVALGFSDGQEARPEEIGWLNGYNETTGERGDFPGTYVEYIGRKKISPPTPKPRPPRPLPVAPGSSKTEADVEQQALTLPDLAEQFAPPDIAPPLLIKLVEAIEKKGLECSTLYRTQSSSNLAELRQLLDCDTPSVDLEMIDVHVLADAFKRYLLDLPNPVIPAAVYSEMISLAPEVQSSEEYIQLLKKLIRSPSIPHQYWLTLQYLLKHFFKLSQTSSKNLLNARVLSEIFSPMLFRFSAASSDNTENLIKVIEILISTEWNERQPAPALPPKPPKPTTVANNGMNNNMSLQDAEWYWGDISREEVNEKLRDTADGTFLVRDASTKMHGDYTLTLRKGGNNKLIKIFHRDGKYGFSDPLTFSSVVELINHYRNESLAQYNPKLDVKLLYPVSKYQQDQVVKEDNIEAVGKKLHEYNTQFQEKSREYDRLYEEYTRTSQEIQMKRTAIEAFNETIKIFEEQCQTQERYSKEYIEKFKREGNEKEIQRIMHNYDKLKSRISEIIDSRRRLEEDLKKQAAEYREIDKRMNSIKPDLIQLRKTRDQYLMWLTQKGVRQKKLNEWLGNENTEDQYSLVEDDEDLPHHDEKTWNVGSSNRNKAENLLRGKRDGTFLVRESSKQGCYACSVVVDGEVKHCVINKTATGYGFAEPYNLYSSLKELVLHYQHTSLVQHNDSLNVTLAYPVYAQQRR
Chain of PI3Kγ (p110γ) Recombinant Human Protein (P48736 whole entry): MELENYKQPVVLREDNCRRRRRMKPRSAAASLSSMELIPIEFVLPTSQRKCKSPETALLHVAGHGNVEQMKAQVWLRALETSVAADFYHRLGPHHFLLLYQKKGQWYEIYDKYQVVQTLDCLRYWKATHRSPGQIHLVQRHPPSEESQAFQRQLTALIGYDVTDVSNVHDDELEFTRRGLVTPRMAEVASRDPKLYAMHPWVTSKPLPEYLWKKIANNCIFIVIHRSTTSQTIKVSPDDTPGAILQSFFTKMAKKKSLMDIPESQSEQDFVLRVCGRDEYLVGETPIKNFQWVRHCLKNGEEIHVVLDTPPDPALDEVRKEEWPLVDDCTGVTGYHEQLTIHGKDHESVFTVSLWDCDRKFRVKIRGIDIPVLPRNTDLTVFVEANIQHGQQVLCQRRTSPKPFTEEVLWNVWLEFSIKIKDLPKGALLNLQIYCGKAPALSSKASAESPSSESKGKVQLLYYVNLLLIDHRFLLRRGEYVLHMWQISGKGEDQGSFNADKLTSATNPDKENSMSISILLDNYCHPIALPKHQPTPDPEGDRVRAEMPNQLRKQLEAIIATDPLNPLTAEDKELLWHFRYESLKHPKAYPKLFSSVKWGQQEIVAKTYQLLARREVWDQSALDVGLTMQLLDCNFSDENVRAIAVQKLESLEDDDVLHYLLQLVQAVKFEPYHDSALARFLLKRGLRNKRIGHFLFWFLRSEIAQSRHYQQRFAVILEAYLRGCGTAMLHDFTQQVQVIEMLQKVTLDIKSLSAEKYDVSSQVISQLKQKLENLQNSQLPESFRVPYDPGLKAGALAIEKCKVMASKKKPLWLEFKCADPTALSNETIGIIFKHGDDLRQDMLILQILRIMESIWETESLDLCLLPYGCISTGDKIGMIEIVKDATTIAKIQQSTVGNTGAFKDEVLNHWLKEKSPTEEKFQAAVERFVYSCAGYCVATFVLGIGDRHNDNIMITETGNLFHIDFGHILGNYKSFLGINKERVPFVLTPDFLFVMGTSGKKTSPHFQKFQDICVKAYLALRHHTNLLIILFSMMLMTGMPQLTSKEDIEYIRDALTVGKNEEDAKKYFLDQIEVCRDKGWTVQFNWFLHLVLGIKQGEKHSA

IC50 [1] [µM]	IC50 [2] [µM]	IC50 [3] [µM]	IC50 ([1]; Homo sapiens) [µM]	SMILES
< 0.1	< 0.1	0.1 to 0.5		Cc1nc(N)c2ncc(-c3cc(S(=O)(=O)N[C@H]4CC[C@](C)(O)CC4)ccc3C)n2n1 [Example 271, 3-(4-amino-2-methylimidazo[1,2-f][1,2,4]triazin-7-yl)-N-((1r,4r)-4-hydroxy-4-methylcyclohexyl)-4-methylbenzenesulfonamide trifluoroacetate salt]
0.1 to 0.5	< 0.1	0.1 to 0.5		Cc1nc(N)c2ncc(-c3cc(S(=O)(=O)N[C@H]4C[C@H](C#N)C4)ccc3C)n2n1 [Example 272, 3-(4-amino-2-methylimidazo[1,2-f][1,2,4]triazin-7-yl)-N-((1r,3r)-3-cyanocyclobutyl)-4-methylbenzenesulfonamide trifluoroacetate salt]
0.1 to 0.5	< 0.1	0.5 to 2		Cc1nc(N)c2ncc(-c3cc(S(=O)(=O)NCC(C)(C)O)ccc3C)n2n1 [Example 273, 3-(4-amino-2-methylimidazo[1,2-f][1,2,4]triazin-7-yl)-N-(2-hydroxy-2-methylpropyl)-4-methylbenzenesulfonamide trifluoroacetate salt]
	< 0.1	0.1 to 0.5	< 0.1	Cc1ccc(S(=O)(=O)NC23CC(CO)(C2)C3)cc1-c1cnc2c(N)nc(C(F)(F)F)cn12 [Example 274, 3-(8-Amino-6-(trifluoromethyl)imidazo[1,2-a]pyrazin-3-yl)-N-(3-(hydroxymethyl)bicyclo[1.1.1]pentan-1-yl)-4-methylbenzenesulfonamide trifluoroacetate salt]
	< 0.1	0.1 to 0.5	0.1 to 0.5	Cc1ccc(S(=O)(=O)NC23CCC(CO)(C2)C3)cc1-c1cnc2c(N)nc(C(F)(F)F)cn12 [Example 275, 3-(8-Amino-6-(trifluoromethyl)imidazo[1,2-a]pyrazin-3-yl)-N-(4-(hydroxymethyl)bicyclo[2.1.1]hexan-1-yl)-4-methylbenzenesulfonamide trifluoroacetate salt]
	< 0.1	0.1 to 0.5	< 0.1	Cc1ccc(S(=O)(=O)NC23CC(CC#N)(C2)C3)cc1-c1cnc2c(N)nc(C(F)(F)F)cn12 [Example 276, 3-(8-Amino-6-(trifluoromethyl)imidazo[1,2-a]pyrazin-3-yl)-N-(3-(cyanomethyl)bicyclo[1.1.1]pentan-1-yl)-4-methylbenzenesulfonamide trifluoroacetate salt]
	< 0.1	0.1 to 0.5	< 0.1	COC(=O)C12CC(NS(=O)(=O)c3ccc(C)c(-c4cnc5c(N)nc(C(F)(F)F)cn45)c3)(C1)C2 [Example 277, Methyl 3-(3-(8-amino-6-(trifluoromethyl)imidazo[1,2-a]pyrazin-3-yl)-4-methylphenylsulfonamido)bicyclo[1.1.1]pentane-1-carboxylate trifluoroacetate salt]
	< 0.1	0.1 to 0.5	< 0.1	Cc1ccc(S(=O)(=O)NC23CC(C(F)F)(C2)C3)cc1-c1cnc2c(N)nc(C(F)(F)F)cn12 [Example 278, 3-(8-Amino-6-(trifluoromethyl)imidazo[1,2-a]pyrazin-3-yl)-N-(3-(difluoromethyl)bicyclo[1.1.1]pentan-1-yl)-4-methylbenzenesulfonamide trifluoroacetate salt]
	< 0.1	< 0.1	< 0.1	Cc1ccc(S(=O)(=O)NC23CC(c4cnco4)(C2)C3)cc1-c1cnc2c(N)nc(C(F)(F)F)cn12 [Example 279, 3-(8-Amino-6-(trifluoromethyl)imidazo[1,2-a]pyrazin-3-yl)-4-methyl-N-(3-(oxazol-5-yl)bicyclo[1.1.1]pentan-1-yl)benzenesulfonamide trifluoroacetate salt]
	< 0.1	0.1 to 0.5	0.1 to 0.5	Cc1ccc(S(=O)(=O)NC23CC(Cn4cncn4)(C2)C3)cc1-c1cnc2c(N)nc(C(F)(F)F)cn12 [Example 280, N-(3-((1H-1,2,4-triazol-1-yl)methyl)bicyclo[1.1.1]pentan-1-yl)-3-(8-amino-6-(trifluoromethyl)imidazo[1,2-a]pyrazin-3-yl)-4-methylbenzenesulfonamide]
	< 0.1	0.1 to 0.5	0.1 to 0.5	Cc1ccc(S(=O)(=O)NC23CCC(C#N)(C2)C3)cc1-c1cnc2c(N)nc(C(F)(F)F)cn12 [Example 281, 3-(8-Amino-6-(trifluoromethyl)imidazo[1,2-a]pyrazin-3-yl)-N-(4-cyanobicyclo[2.1.1]hexan-1-yl)-4-methylbenzenesulfonamide trifluoroacetate salt]
	< 0.1	0.1 to 0.5	< 0.1	Cc1ccc(S(=O)(=O)NC23CC(C(C)(C)O)(C2)C3)cc1-c1cnc2c(N)nc(C(F)(F)F)cn12 [Example 282, 3-(8-Amino-6-(trifluoromethyl)imidazo[1,2-a]pyrazin-3-yl)-N-(3-(2-hydroxypropan-2-yl)bicyclo[1.1.1]pentan-1-yl)-4-methylbenzenesulfonamide trifluoroacetate salt]
	< 0.1	0.1 to 0.5	0.1 to 0.5	Cc1ccc(S(=O)(=O)NC23CC(Cn4cccn4)(C2)C3)cc1-c1cnc2c(N)nc(C(F)(F)F)cn12 [Example 283, N-(3-((1H-pyrazol-1-yl)methyl)bicyclo[1.1.1]pentan-1-yl)-3-(8-amino-6-(trifluoromethyl)imidazo[1,2-a]pyrazin-3-yl)-4-methylbenzenesulfonamide trifluoroacetate salt]
	< 0.1	0.1 to 0.5	0.1 to 0.5	Cc1ccc(S(=O)(=O)NC23CC(Cn4ccnc4)(C2)C3)cc1-c1cnc2c(N)nc(C(F)(F)F)cn12 [Example 284, N-(3-((1H-imidazol-1-yl)methyl)bicyclo[1.1.1]pentan-1-yl)-3-(8-amino-6-(trifluoromethyl)imidazo[1,2-a]pyrazin-3-yl)-4-methylbenzenesulfonamide trifluoroacetate salt]
	< 0.1	0.1 to 0.5	0.1 to 0.5	Cc1ccc(S(=O)(=O)NC23CC(F)(C2)C3)cc1-c1cnc2c(N)nc(C(F)(F)F)cn12 [Example 285, 3-(8-Amino-6-(trifluoromethyl)imidazo[1,2-a]pyrazin-3-yl)-N-(3-fluorobicyclo[1.1.1]pentan-1-yl)-4-methylbenzenesulfonamide trifluoroacetate salt]
	< 0.1	0.1 to 0.5	< 0.1	Cc1ccc(S(=O)(=O)NC23CC(CF)(C2)C3)cc1-c1cnc2c(N)nc(C(F)(F)F)cn12 [Example 286, 3-(8-Amino-6-(trifluoromethyl)imidazo[1,2-a]pyrazin-3-yl)-N-(3-(fluoromethyl)bicyclo[1.1.1]pentan-1-yl)-4-methylbenzenesulfonamide trifluoroacetate salt]
	< 0.1	0.1 to 0.5	< 0.1	Cc1ccc(S(=O)(=O)NC23CC(C#N)(C2)C3)cc1-c1cnc2c(N)nc(C(F)(F)F)cn12 [Example 287, 3-(8-Amino-6-(trifluoromethyl)imidazo[1,2-a]pyrazin-3-yl)-N-(3-cyanobicyclo[1.1.1]pentan-1-yl)-4-methylbenzenesulfonamide]
	< 0.1	0.1 to 0.5	0.1 to 0.5	Cc1ccc(S(=O)(=O)NC23CC(C(N)=O)(C2)C3)cc1-c1cnc2c(N)nc(C(F)(F)F)cn12 [Example 288, 3-(3-(8-Amino-6-(trifluoromethyl)imidazo[1,2-a]pyrazin-3-yl)-4-methylphenylsulfonamido)bicyclo[1.1.1]pentane-1-carboxamide trifluoroacetate salt]
	< 0.1	0.1 to 0.5	0.1 to 0.5	Cc1ccc(S(=O)(=O)NC23CC(CN4CCOCC4)(C2)C3)cc1-c1cnc2c(N)nc(C(F)(F)F)cn12 [Example 289, 3-(8-Amino-6-(trifluoromethyl)imidazo[1,2-a]pyrazin-3-yl)-4-methyl-N-(3-(morpholinomethyl)bicyclo[1.1.1]pentan-1-yl)benzenesulfonamide trifluoroacetate salt]
	< 0.1	0.5 to 2	> 1	Cc1ccc(S(=O)(=O)NC23CC(C(=O)O)(C2)C3)cc1-c1cnc2c(N)nc(C(F)(F)F)cn12 [Example 290, 3-(3-(8-Amino-6-(trifluoromethyl)imidazo[1,2-a]pyrazin-3-yl)-4-methylphenylsulfonamido)bicyclo[1.1.1]pentane-1-carboxylic acid trifluoroacetate salt]
	< 0.1	0.1 to 0.5	0.5 to 1	Cc1ccc(S(=O)(=O)NC23CCC(C(N)=O)(C2)C3)cc1-c1cnc2c(N)nc(C(F)(F)F)cn12 [Example 291, 4-(3-(8-Amino-6-(trifluoromethyl)imidazo[1,2-a]pyrazin-3-yl)-4-methylphenylsulfonamido)bicyclo[2.1.1]hexane-1-carboxamide trifluoroacetate salt]
